Reference: patent US9789181B2, “PAN-DR binding polypeptides and uses thereof” (Epimmune Inc., priority 2009, dated 2017)
Where no end group is shown, it is not given here.

Columns and labels:
[1] = target: HLA DRB1 *0101 (Homo sapiens, UniProt P01903+P01911, A100R/D57E/F55L/F60I/F76Y/I96L/L162R/M171V/P40L/Q125E/R42F/V115G/Y59C); assay: IC50nM to purified HLA | DRB1 *0101
Description: (§1) Table printed on a drawing sheet, FIG. 1 (contd.)
(§2) Head of the field: IC50nM to purified HLA | DRB1 *0101
(§3) First copying reader's note: Continued from the preceding sheet of FIG. 1; decimal commas are used, the analog names give the substituted residues and positions in PADRE, and some values are printed in italics or bold and some SEQ ID NOs bold and underlined without a legend on this sheet.
(§4) Where the first naming reader finds the target: head: IC50nM to purified HLA | DRB1 *0101

[2] = target: HLA DRB1 *0404 (Homo sapiens, UniProt P01903+P01911, A100R/A169T/F76Y/I96L/K127E/L162R/M171V/N62H/P40V/Q125Y/R42H/S133A/S149N/S66Y/V209L/W38E); assay: IC50nM to purified HLA | DRB1 *0404
Description: as §1
(§5) Head of the field: IC50nM to purified HLA | DRB1 *0404
as §3
(§6) Where the first naming reader finds the target: head: IC50nM to purified HLA | DRB1 *0404

[3] = target: HLA DRB1 *0802 (Homo sapiens, UniProt P01903+P01911, A100R/A103L/A169T/F76Y/H45Y/I96F/K41T/L162R/M171V/P40S/Q125H/Q178H/Q39Y/Q99D/R218S/R42G/S66Y/V115G/W38E); assay: IC50nM to purified HLA | DRB1 *0802
Description: as §1
(§7) Head of the field: IC50nM to purified HLA | DRB1 *0802
as §3
(§8) Where the first naming reader finds the target: head: IC50nM to purified HLA | DRB1 *0802

[4] = target: HLA DRB1 *0901 (Homo sapiens, UniProt P01903+P01911, A100R/A103E/D57H/D86V/F55Y/F60I/F76Y/I96F/K127E/L162R/M171V/P40D/Q125H/Q99R/R33Q/R42F/S133A/S66N/T210M/V115G/W38K/Y107V/Y59G/Y89S); assay: IC50nM to purified HLA | DRB1 *0901
Description: as §1
Head of the field: IC50nM to purified HLA | DRB1 *0901
as §3
Where the first naming reader finds the target: head: IC50nM to purified HLA | DRB1 *0901

[5] = target: HLA DRB1 *1101 (Homo sapiens, UniProt P01903+P01911, A100R/A169T/A87E/I96F/K41T/L162R/M171V/P40S/Q125H/Q178H/Q39Y/Q99D/R42S/S66Y/T262R/V115G/W38E); assay: IC50nM to purified HLA | DRB1 *1101
Description: as §1
Head of the field: IC50nM to purified HLA | DRB1 *1101
as §3
Where the first naming reader finds the target: head: IC50nM to purified HLA | DRB1 *1101

[6] = target: HLA DRB1 *1501 (Homo sapiens, UniProt P01903+P01911); assay: IC50nM to purified HLA | DRB1 *1501
Description: as §1
(§9) Head of the field: IC50nM to purified HLA | DRB1 *1501
as §3
(§10) Where the first naming reader finds the target: head: IC50nM to purified HLA | DRB1 *1501

[7] = target: HLA DRB4 *0101 (Homo sapiens, UniProt P01903+P13762, G164S); assay: IC50nM to purified HLA | DRB4 *0101
Description: as §1
(§11) Head of the field: IC50nM to purified HLA | DRB4 *0101
as §3
(§12) Where the first naming reader finds the target: head: IC50nM to purified HLA | DRB4 *0101

[8] = target: HLA DRB1 *0405 (Homo sapiens, UniProt P01903+P01911, A100R/A169T/D86S/F76Y/I96L/K127E/L162R/M171V/N62H/P40V/Q125Y/R42H/S133A/S149N/S66Y/V115G/V209L/W38E); assay: IC50nM to purified HLA | DRB1 *0405
Description: as §1
(§13) Head of the field: IC50nM to purified HLA | DRB1 *0405
as §3
(§14) Where the first naming reader finds the target: head: IC50nM to purified HLA | DRB1 *0405

[9] = target: purified HLA DRB1 *0101 (Homo sapiens, UniProt P01903+P01911, A100R/D57E/F55L/F60I/F76Y/I96L/L162R/M171V/P40L/Q125E/R42F/V115G/Y59C); assay: IC50nM to purified HLA | DRB1 *0101
Description: (§15) Table printed on a drawing sheet, FIG. 1
as §2
(§16) First copying reader's note: The comma is the decimal sign and the point a thousands separator (e.g. 21.831); some values are printed bold or italic and some SEQ ID NOs underlined, with no legend on the sheet.
as §4

[10] = target: purified HLA DRB1 *0301 (Homo sapiens, UniProt P01903+P01911, A100K/A102G/A103R/A169T/F55Y/I96L/K41T/L162R/M171V/P40S/Q125H/Q178H/Q39Y/R42S/S66N/T106N/T262R/W38E/Y61H); assay: IC50nM to purified HLA | DRB1 *0301
Description: as §15
(§17) Head of the field: IC50nM to purified HLA | DRB1 *0301
as §16
(§18) Where the first naming reader finds the target: head: IC50nM to purified HLA | DRB1 *0301

[11] = target: purified HLA DRB1 *0401 (Homo sapiens, UniProt P01903+P01911, A100K/A169T/F76Y/I96L/K127E/L162R/M171V/N62H/P40V/Q125Y/R42H/S133A/S149N/S66Y/V115G/V209L/W38E); assay: IC50nM to purified HLA | DRB1 *0401
Description: as §15
Head of the field: IC50nM to purified HLA | DRB1 *0401
as §16
Where the first naming reader finds the target: head: IC50nM to purified HLA | DRB1 *0401

[12] = target: purified HLA DRB1 *0404 (Homo sapiens, UniProt P01903+P01911, A100R/A169T/F76Y/I96L/K127E/L162R/M171V/N62H/P40V/Q125Y/R42H/S133A/S149N/S66Y/V209L/W38E); assay: IC50nM to purified HLA | DRB1 *0404
Description: as §15, §5, §16, §6

[13] = target: purified HLA DRB1 *0701 (Homo sapiens, UniProt P01903+P01911, A100R/A102G/A103Q/D57E/D86V/E43K/F76Y/K127E/L162R/M171V/P40G/Q125H/Q99D/R33Q/R42Y/R54Q/S133A/S66F/T210M/V115G/Y107V/Y59L/Y89S); assay: IC50nM to purified HLA | DRB1 *0701
Description: as §15
Head of the field: IC50nM to purified HLA | DRB1 *0701
as §16
Where the first naming reader finds the target: head: IC50nM to purified HLA | DRB1 *0701

[14] = target: purified HLA DRB1 *0802 (Homo sapiens, UniProt P01903+P01911, A100R/A103L/A169T/F76Y/H45Y/I96F/K41T/L162R/M171V/P40S/Q125H/Q178H/Q39Y/Q99D/R218S/R42G/S66Y/V115G/W38E); assay: IC50nM to purified HLA | DRB1 *0802
Description: as §15, §7, §16, §8

[15] = target: purified HLA DRB1 *1501 (Homo sapiens, UniProt P01903+P01911); assay: IC50nM to purified HLA | DRB1 *1501
Description: as §15, §9, §16, §10

[16] = target: purified HLA DRB4 *0101 (Homo sapiens, UniProt P01903+P13762, G164S); assay: IC50nM to purified HLA | DRB4 *0101
Description: as §15, §11, §16, §12

[17] = target: purified HLA DRB1 *0405 (Homo sapiens, UniProt P01903+P01911, A100R/A169T/D86S/F76Y/I96L/K127E/L162R/M171V/N62H/P40V/Q125Y/R42H/S133A/S149N/S66Y/V115G/V209L/W38E); assay: IC50nM to purified HLA | DRB1 *0405
Description: as §15, §13, §16, §14

[18] = target: purified HLA DRB5 *0101 (Homo sapiens, UniProt P01903+Q30154); assay: IC50nM to purified HLA | DRB5 *0101
Description: as §15
Head of the field: IC50nM to purified HLA | DRB5 *0101
as §16
Where the first naming reader finds the target: head: IC50nM to purified HLA | DRB5 *0101

[19] = target: purified HLA DRB1 *1302 (Homo sapiens, UniProt P01903+P01911, A100E/A169T/K41T/L162R/M171V/P40S/Q125H/Q178H/Q39Y/Q99D/R42S/S66N/T262R/V115G/W38E/Y61H); assay: IC50nM to purified HLA | DRB1 *1302
Description: as §15
Head of the field: IC50nM to purified HLA | DRB1 *1302
as §16
Where the first naming reader finds the target: head: IC50nM to purified HLA | DRB1 *1302

[20] = target: HLA DRB1 *0301 (Homo sapiens, UniProt P01903+P01911, A100K/A102G/A103R/A169T/F55Y/I96L/K41T/L162R/M171V/P40S/Q125H/Q178H/Q39Y/R42S/S66N/T106N/T262R/W38E/Y61H); assay: IC50nM to purified HLA | DRB1 *0301
Description: as §1, §17, §3, §18

Chain of purified HLA DRB4 *0101 (P01903 26-254 limits assumed): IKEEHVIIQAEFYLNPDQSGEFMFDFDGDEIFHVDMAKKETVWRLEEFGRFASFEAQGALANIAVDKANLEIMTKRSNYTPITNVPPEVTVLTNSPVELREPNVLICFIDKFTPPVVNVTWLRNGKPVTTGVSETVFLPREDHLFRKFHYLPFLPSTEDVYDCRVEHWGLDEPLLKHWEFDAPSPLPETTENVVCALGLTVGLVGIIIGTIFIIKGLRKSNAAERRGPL
Chain of purified HLA DRB4 *0101 (P13762 whole entry G164S): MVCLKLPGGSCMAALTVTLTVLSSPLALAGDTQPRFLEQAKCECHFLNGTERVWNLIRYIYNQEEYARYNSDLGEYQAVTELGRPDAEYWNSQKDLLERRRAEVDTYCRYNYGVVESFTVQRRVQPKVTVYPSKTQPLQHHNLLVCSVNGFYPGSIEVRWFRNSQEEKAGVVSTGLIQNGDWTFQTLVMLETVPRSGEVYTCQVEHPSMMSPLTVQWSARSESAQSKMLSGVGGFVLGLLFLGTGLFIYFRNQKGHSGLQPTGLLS
Chain of purified HLA DRB1 *0301 (P01903 26-254 limits assumed, other chains not shown): as the sequence (P01903 26-254 limits assumed) above
Chain of purified HLA DRB1 *1302 (P01903 26-254 limits assumed, other chains not shown): as the sequence (P01903 26-254 limits assumed) above
Chain of HLA DRB1 *1101 (P01903 26-254 limits assumed, other chains not shown): as the sequence (P01903 26-254 limits assumed) above
Chain of HLA DRB4 *0101 (P01903 26-254 limits assumed): as above
Chain of HLA DRB4 *0101 (P13762 whole entry G164S): as the sequence (P13762 whole entry G164S) above
Chain of HLA DRB1 *0301 (P01903 26-254 limits assumed, other chains not shown): as the sequence (P01903 26-254 limits assumed) above

| Sequence | IC50 [1] [nM] | IC50 [2] [nM] | IC50 [3] [nM] | IC50 [4] [nM] | IC50 [5] [nM] | IC50 [6] [nM] | IC50 [7] [nM] | IC50 [8] [nM] | IC50 [9] [nM] | IC50 [10] [nM] | IC50 [11] [nM] | IC50 [12] [nM] | IC50 [13] [nM] | IC50 [14] [nM] | IC50 [15] [nM] | IC50 [16] [nM] | IC50 [17] [nM] | IC50 [18] [nM] | IC50 [19] [nM] | IC50 [20] [nM] |
| --- | --- | --- | --- | --- | --- | --- | --- | --- | --- | --- | --- | --- | --- | --- | --- | --- | --- | --- | --- | --- |
| AAAEFVAANTLHAAA [SEQ ID NO: 49] | 9 | 6.9 | 37 | 87 | 70 | 137 | 878 | 44 | – | – | – | – | – | – | – | – | – | – | – | – |
| AAAFFVAAWTLHAAA [SEQ ID NO: 12] | – | – | – | – | – | – | – | – | 3.6 | 129 | 2.2 | 2.9 | 60 | 7.8 | 25 | 440 | – | – | – | – |
| AAAFFVAAYTLHAAA [SEQ ID NO: 13] | – | – | – | – | – | – | – | – | 4.4 | 151 | 1.7 | 2.3 | 54 | 7.4 | 4.8 | 805 | 19 | 11 | – | – |
| AAAHFVAAWTLHAAA [SEQ ID NO: 26] | – | – | – | – | – | – | – | – | 4.2 | – | – | – | 53 | 9.3 | – | 267 | – | – | 1190 | – |
| AAAHFVAAYTLHAAA [SEQ ID NO: 27] | – | – | – | – | – | – | – | – | 3.8 | 214 | 3.4 | 5.7 | 94 | 11 | 4.2 | 526 | – | 30 | 1320 | – |
| AAANFVAAWTLHAAA [SEQ ID NO: 51] | 4.5 | – | 13 | – | 11 | 10 | 253 | 7.6 | – | – | – | – | – | – | – | – | – | – | – | 147 |
| AAAWFVAAFTLHAAA [SEQ ID NO: 9] | – | – | – | – | – | – | – | – | 5.3 | 139 | 3.1 | – | 69 | – | 38 | 115 | – | 30 | – | – |
| AAAYFVAANTLHAAA [SEQ ID NO: 24] | – | – | – | – | – | – | – | – | 4.5 | 130 | 3.3 | 5.2 | 49 | – | 53 | 703 | – | – | 54 | – |
| AAAYFVAAWTLHAAA [SEQ ID NO: 21] | – | – | – | – | – | – | – | – | 3.7 | 119 | – | – | 55 | 9.7 | – | 279 | 6.9 | – | – | – |
